Where “and” joins values, the source holds several entries; their conditions need not be identical. Identical values can stand only once.

We go through one compound from patent US20070244200A1, “Method for triggering angiogenic response” (priority 2006, published 2007).

The subject of this assay is rabbit aortic endothelial cells (RAEC). In words: Cord formation on Matrigel (in vitro angiogenesis assay). In kind it is cell-based. Particulars: 18-24 h; for Percent Increase in Cord length, Set I / Percent Increase in Cord length, Set II / Percent Increase in Cord length, Set III: individual picture scores; for Percent Increase in Cord length, Mean: mean of 18 scores. The procedure:
In carrying this invention, materials needed in this example include commercially available items as follows: a 96 Well Plate, for example, flat bottom 96 well plate (Falcon 353072); Media-BM-2 (Clonetics CC-3162), DMEM (Gibco Cat#11960044); Matrigel-Beckton Dickinson (Cat#40234); Cells; HUVEC (2×10^6/ml) in EBM-2 in EBM-2; and Image Analysis-Image-Pro Plus In this example, the assay is performed under hood is, a Laminar Flow Hood. Frozen Matrigel (Beckton Dickinson 40234) is placed overnight on ice to thaw. Then, a concentration of matrigel is adjusted to 10 mg/ml using DMEM media. An ice cold 96 well plate is then placed on ice in a flat dish. Using an ice cold tip, gently layer 60 μl of matrigel (10 mg/ml; kept on ice) in each well. Gently tap the plate so that matrigel is evenly distributed in each well. The assay thereafter involves the following steps and protocols of: Removing the ice under the plate and incubate the plate for 15 min at room temperature; transfer the plate to a 37° C. incubator for at least 30 min for the Matrigel to polymerize; prepare methanandamide at 2X the desired concentration in culture media; harvest RAEC (rabbit aortic endothelial cells) in culture media and adjust the cell density to 2×10^5/ml; mix 500 μl of drug with 500 μl of cell suspension and place 200 μl of this suspension in duplicate wells on polymerized matrigel (being cautious to not touch matrigel with the tip and to dispense cells very gently and slowly on the matrigel to avoid damage to matrigel layer); incubate the compound concentration in a 37° C. humidified incubator for 18-24 h observe condition of cords under a microscope.; take at least three pictures (10 X) from different fields from each well (or six pictures from duplicate wells); count number of junctions and tube length (mm) from each picture using Image Pro Image Analysis System; and analyze the data.
In accordance with a preferred embodiment of the present invention, the effect of methanandamide on rabbit aortic endothelial cells (RAEC) was tested for its ability to induce cord formation on matrigel. This process entails an accepted in vitro assay for angiogenesis. The procedures involve analyses with three different concentrations of methanandamide compound and repeated the experiments three different times in duplicate. As mentioned earlier above in the protocol, the 3 pictures from each well were taken. Therefore, for each concentration (data point) we have 18 scores. The analysis entails the measure of two parameters: (1) cord length; and (2) cord junction number.
In FIG. 1, there is shown representations for eighteen (18) scores of data points for each concentration of methanandamide compound analyzed. The scores indicated for each concentration of methanandamide resulted from three different concentrations of methanandamide, i.e. 10 nM, 50 nM, and 100 nM. Three (3) pictures taken from each field or well (Six (6) pictures for duplicate wells). Each treatment or analysis was done in duplicate in 3 separate sets, i.e., Set I, Set II, and Set III. Therefore, for each concentration data point has eighteen (18) scores (3×2×3=18 data points).

As to `CCCCC/C=C\C/C=C\C/C=C\C/C=C\CCCC(=O)N[C@H](C)CO` [Methanandamide, methyl arachidonyl ethanolamide], where the note is “Methanandamide 10 nM”, the “Percent Increase in Cord length, Set I” value is 12% (2×) and 11% and 9% and 13% and 10%; the “Percent Increase in Cord length, Set II” value is 16% and 21% and 14% and 18% and 13% and 12%; the “Percent Increase in Cord length, Set III” value was 14% and 10% and 17% (2×) and 13% and 15%; the “Percent Increase in Cord length, Mean” value is listed as 14%. Further, where the note is “Methanandamide 50 nM”, the “Percent Increase in Cord length, Set I” value was 17% and 22% and 25% and 32% (2×) and 19%; the “Percent Increase in Cord length, Set II” value is 17% and 26% and 22% (2×) and 28% and 18%; the “Percent Increase in Cord length, Set III” value is 34% and 25% and 30, 30, Percent (2×) and 26% and 35%; the “Percent Increase in Cord length, Mean” value was found to be 25%. For the same compound, under “Methanandamide 100 nM”, the “Percent Increase in Cord length, Set I” value was 45% and 42% (2×) and 39% and 47% and 40%; the “Percent Increase in Cord length, Set II” value was 37% and 41% and 44% (2×) and 32% and 34%; the “Percent Increase in Cord length, Set III” value was 38% and 42% and 44% and 47% and 36% and 34%; the “Percent Increase in Cord length, Mean” value is 40%.
